We go through 15 molecules from the OPERA property sets (Mansouri et al. 2018).

Broadly, the logP is the decadic logarithm of the partition coefficient of the neutral form, usually between octanol and water. The low end stands for lower lipophilicity, the high end for higher lipophilicity.

With `Nc1ccc(Cc2nc3cc(Cl)ccc3[nH]2)cc1`, the logP is 3.2.

The molecule `COc1ccc(Cc2nc3cc([N+](=O)[O-])ccc3[nH]2)cc1` registered a logP of 3.48.

The molecule `Clc1ccc(-c2nc3ncccc3[nH]2)cc1` had a logP of 2.95.

Molecule `Clc1ccc2[nH]c(Cc3ccc(Br)cc3)nc2c1` displayed a logP of 5.38.

As for `Cc1ccc(Cc2nc3cc(Cl)ccc3[nH]2)cc1`, the logP was determined as 5.21.

For `COc1ccc(-c2nc3cc(C)ccc3[nH]2)c(OC)c1`, the logP was found to be 3.78.

Molecule `Cc1ccc(-c2nc3cc([N+](=O)[O-])ccc3[nH]2)c(C)c1` had a logP of 4.1.

`Cc1ccccc1-c1nc2cc([N+](=O)[O-])ccc2[nH]1` came in with a logP of 3.42.

Molecule `Cc1ccc(-c2nc3ncccc3[nH]2)cc1` gave a logP of 3.02.

As to `CCc1ccc(-c2nc3ncccc3[nH]2)cc1`, the logP was 3.42.

Turning to `CC(C)(C)c1ccc(-c2nc3ncccc3[nH]2)cc1`, the lipophilicity (logP) came to 4.82.

`COc1ccccc1-c1nc2ccccc2[nH]1` came in with a logP of 3.02.

Molecule `Cc1ccc(-c2nc3ccccc3[nH]2)cc1` registered a logP of 3.67.

In turn, `Clc1ccc(Cc2nc3cc(Cl)ccc3[nH]2)cc1` came in with a logP of 5.18.

Molecule `Fc1ccc(-c2nc3ncccc3[nH]2)cc1` showed a logP of 2.52.
